The target in assay [1] is T1, Phospho-N-acetylmuramoyl-pentapeptide-transferase (Staphylococcus aureus, UniProt P0C1R8).
T1 sequence (P0C1R8 whole entry): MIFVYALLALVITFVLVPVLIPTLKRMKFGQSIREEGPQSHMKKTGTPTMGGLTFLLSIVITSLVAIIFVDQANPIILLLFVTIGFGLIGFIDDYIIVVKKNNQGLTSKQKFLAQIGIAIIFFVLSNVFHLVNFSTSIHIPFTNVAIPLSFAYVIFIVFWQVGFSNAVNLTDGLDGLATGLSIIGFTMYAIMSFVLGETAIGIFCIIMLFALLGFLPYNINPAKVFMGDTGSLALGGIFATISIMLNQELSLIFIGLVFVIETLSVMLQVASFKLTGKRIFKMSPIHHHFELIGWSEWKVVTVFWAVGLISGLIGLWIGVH
Briefly: Inhibition of Staphylococcus aureus MraY assessed as reduction of dansylated lipid I formation using UDP-MurNAcdansylpentapeptide as substrate incubated for 3 to 4 hrs by fluorescence based analysis.

In assay [2] the test system is Mycobacteroides abscessus. Briefly: Antibacterial activity against Mycobacterium abscessus ATCC 19977 assessed as inhibition of bacterial growth incubated for 5 days by microplate reader analysis. It is filed as functional. As to conditions: ATCC 19977, 120 h, time 5 day.

Here are results for six molecules from ChEMBL document CHEMBL5143692, “Design, synthesis and conformation-activity relationship analysis of LNA/BNA-type 5'-O-aminoribosyluridine as MraY inhibitors” (Bioorg Med Chem, 2022).

Structures are written as SMILES. In brackets after ≈: the same amount, converted by molar mass.

For `NC[C@H]1O[C@@H](O[C@@H](C#Cc2ccccc2)[C@@]23CO[C@@H]([C@H](n4ccc(=O)[nH]c4=O)O2)[C@@H]3O)[C@H](O)[C@@H]1O`, the IC50 in assay [1] turned out to be 37 µM. Besides, the MIC50 in assay [2] is over 32 µg/mL.

Turning to `CC[C@H](O[C@@H]1O[C@H](CN)[C@@H](O)[C@H]1O)[C@@]12CO[C@@H]([C@H](n3ccc(=O)[nH]c3=O)O1)[C@@H]2O`, the 50% inhibitory concentration (IC50) in assay [1] came to 4.5 µM. In assay [2], the MIC50 stood at 32 µg/mL (≈ 77 µM).

Regarding `C#C[C@H](O[C@@H]1O[C@H](CN)[C@@H](O)[C@H]1O)[C@H]1O[C@@H](n2ccc(=O)[nH]c2=O)[C@H](O)[C@@H]1O`, the IC50 in assay [1] was determined as 20 µM. The MIC50 in assay [2] was over 32 µg/mL.

On to `NC[C@H]1O[C@@H](O[C@@H](C#Cc2ccccc2)[C@H]2O[C@@H](n3ccc(=O)[nH]c3=O)[C@H](O)[C@@H]2O)[C@H](O)[C@@H]1O`, for which the IC50 in assay [1] turned out to be 2.3 µM. The MIC50 in assay [2] is over 32 µg/mL.

Regarding `NC[C@H]1O[C@@H](OC[C@@]23CO[C@@H]([C@H](n4ccc(=O)[nH]c4=O)O2)[C@@H]3O)[C@H](O)[C@@H]1O`, the IC50 in assay [1] was 46 µM. Also, in assay [2], the MIC50 is over 32 µg/mL.

For the molecule `C#C[C@H](O[C@@H]1O[C@H](CN)[C@@H](O)[C@H]1O)[C@@]12CO[C@@H]([C@H](n3ccc(=O)[nH]c3=O)O1)[C@@H]2O`, the IC50 in assay [1] worked out at 24 µM. In assay [2], the MIC50 was over 32 µg/mL.
